Data from ChEMBL document CHEMBL3886743, “Immune system modulators” (2016).

molecular target: T1, Toll-like receptor 9 (Homo sapiens, UniProt Q9NR96); assay: TLR9 Antagonism Assay: Day 1: A cell suspension of HEK-Blue™-hTLR9 cells at ~450,000 cells per ml in test medium which contained 5% (v/v) heat inactivated FBS was prepared. 180 μl of cell suspension (~80,000 cells) was added per well of a flat-bottom 96-well plate and place in an incubator at 37° C. for overnight. Day 2: Test compounds were serially diluted in test medium, generally starting at 10 μM, and diluting by 3 fold in a 96 well master plate. 20 μl of diluted test compound was transferred using a 12 channel multi-channel pipet to the cell plate and incubated at 37° C. for 1 hour. Then 20 μl of an hTLR9 agonist (such as ODN 2006, 1 μM) was added to each well and the plate incubated at 37° C. overnight. Day 3: Invivogen's QUANTI-Blue™ was prepared following the manufacturer's instructions. […] of resuspended QUANTI-Blue™ was added per well of a flat bottom 96-well plate. 20 μl per well of induced HEK-Blue™-hTLR9 cells supernatant was then added to the plate and the plate was incubated at 37° C. for 1-3 h. SEAP levels were determined using a spectrophotometer at 620 nm.
T1 sequence (Q9NR96 whole entry): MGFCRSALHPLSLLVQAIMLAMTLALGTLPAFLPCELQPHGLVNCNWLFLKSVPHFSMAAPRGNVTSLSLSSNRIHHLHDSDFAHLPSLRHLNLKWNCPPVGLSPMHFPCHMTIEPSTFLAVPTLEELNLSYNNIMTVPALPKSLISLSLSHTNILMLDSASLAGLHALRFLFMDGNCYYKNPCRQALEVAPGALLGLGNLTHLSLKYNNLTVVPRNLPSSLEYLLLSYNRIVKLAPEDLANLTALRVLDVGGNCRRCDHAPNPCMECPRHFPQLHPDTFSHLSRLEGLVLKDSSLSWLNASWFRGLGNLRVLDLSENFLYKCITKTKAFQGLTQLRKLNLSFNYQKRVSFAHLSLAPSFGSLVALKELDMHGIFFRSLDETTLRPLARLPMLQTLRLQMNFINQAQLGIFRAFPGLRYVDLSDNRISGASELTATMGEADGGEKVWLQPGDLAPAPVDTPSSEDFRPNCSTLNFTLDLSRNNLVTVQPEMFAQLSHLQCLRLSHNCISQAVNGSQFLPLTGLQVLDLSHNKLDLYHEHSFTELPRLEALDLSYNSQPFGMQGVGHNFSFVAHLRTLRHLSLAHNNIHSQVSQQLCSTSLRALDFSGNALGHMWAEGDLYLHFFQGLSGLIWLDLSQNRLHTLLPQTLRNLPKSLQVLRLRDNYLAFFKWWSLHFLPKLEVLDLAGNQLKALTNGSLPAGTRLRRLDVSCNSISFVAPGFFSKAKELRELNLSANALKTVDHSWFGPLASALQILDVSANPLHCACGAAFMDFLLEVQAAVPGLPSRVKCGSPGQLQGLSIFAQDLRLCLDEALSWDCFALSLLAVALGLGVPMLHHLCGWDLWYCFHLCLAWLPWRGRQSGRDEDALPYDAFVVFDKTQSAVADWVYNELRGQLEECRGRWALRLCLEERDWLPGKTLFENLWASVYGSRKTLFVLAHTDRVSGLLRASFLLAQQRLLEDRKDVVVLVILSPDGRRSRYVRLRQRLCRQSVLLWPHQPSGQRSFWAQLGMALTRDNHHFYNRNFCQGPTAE

Row | IC50 [µM] | SMILES
1 | 11.1 | CCCCSc1nc(NCCN2CCOCC2)c2nc(O)n(CCN3CCOCC3)c2n1
2 | 0.142 | CCN1CCN(c2ccc(-c3nc(NCCN4CCOCC4)c4nc[nH]c4n3)cc2)CC1
3 | 0.604 | CN1CCN(CCNc2nc(-c3ccccc3)nc3c2ncn3CCN2CCN(C)CC2)CC1
4 | 0.072 | CN1CCN(c2ccc(-c3nc(NCCN4CCOCC4)c4nc[nH]c4n3)cc2)CC1
5 | 7.53 | c1ccc(-c2nc(NCCN3CCOCC3)c3ncn(CCN4CCOCC4)c3n2)cc1
6 | 8.01 | Oc1nc2c(NCCN3CCOCC3)nc(-c3ccccc3)nc2n1CCN1CCOCC1
7 | 5.2 | CCOC(=O)Cn1cnc2c(NCCN3CCOCC3)nc(-c3ccc(N4CCN(C)CC4)cc3)nc21
8 | 3.29 | CN1CCN(CCNc2nc(-c3ccccc3)nc3c2ncn3CCN2CCOCC2)CC1
